Test system: CHD (fatal CHD, definite non-fatal MI, or revascularization)
Experiment: CARE: SNP by pravastatin treatment interaction, logistic regression (synergy index), CHD endpoint
Format: in vivo, human
From the text: CARE was a secondary prevention trial and WOSCOPS was a primary prevention trial.
The CHD endpoint was defined in the analyses herein of CARE as a composite endpoint of fatal CHD, definite non-fatal MI, or revascularization, and was defined in the analyses herein of WOSCOPS as a composite endpoint of death from CHD, nonfatal MI, or revascularization. In both the CARE and WOSCOPS analyses herein, the CVD endpoint was defined as a composite endpoint of CHD or stroke. […] Revascularization, which can include percutaneous transluminal coronary angioplasty (PTCA), stent placement, and coronary artery bypass graft (CABG), are medical interventions that indicate the presence of CHD.
Cohort and case-only study designs were used to identify SNPs associated with response to statin treatment.
For each SNP, a logistic regression model having treatment status as the dependent variable and SNP as the independent predictor variable was performed, with terms for age, sex and race included in the model as covariates. The anti-log of the regression coefficient corresponding to the SNP is an estimate of the synergy index (SI) (Davis et al., “Imputing gene-treatment interactions when the genotype distribution is unknown using case-only and putative placebo analyses-a new method for the Genetics of Hypertension Associated Treatment (GenHAT) study”, Statistics in Medicine 23: (2004), pages 2413-2427). The SI is a ratio of odds ratios: for example in the CARE and WOSCOPS studies, the SI represents the factor by which the odds-ratio of statin treatment, compared with placebo, among major homozygous individuals is multiplied by in order to obtain the odds-ratio of treatment vs. placebo among heterozygous individuals; and multiplied by a second time to obtain the odds-ratio of treatment vs. placebo in minor homozygous individuals. The case-only study design results in a valid estimate of the SI under the assumption that genotype and treatment are independent in the population. In a randomized clinical trial, genotype and treatment are independent by design. The p-value for the regression coefficient corresponding to the SNP results from a test of the null hypothesis that the regression coefficient is equal to zero (SI is equal to one) and thus small p-values indicate the SI is unlikely equal to one and that the effect of treatment likely differs by genotype.
A case-only study design was used to test whether the reduction of CHD events by statin therapy (for CARE and WOSCOPS studies) differed according to genotype (a treatment by SNP interaction) for each SNP evaluated in the study.

Compound: CC[C@H](C)C(=O)O[C@H]1C[C@H](O)C=C2C=C[C@H](C)[C@H](CC[C@@H](O)C[C@@H](O)CC(=O)O)[C@H]21 [Pravastatin, pravastatin]
- CARE OR (rs3732788 allele G vs A (ref), Source cohort): 0.56
- CARE OR (rs3798544 allele A vs G (ref), Source cohort): 1.47
- CARE OR (rs3998860 allele A vs G (ref), Source cohort): 0.58
- CARE OR (rs4289236 allele A vs G (ref), Source cohort): 1.37
- CARE OR (rs4611134 allele A vs G (ref), Source cohort): 1.54
- CARE OR (rs4643388 allele G vs A (ref), Source cohort): 1.32
- CARE OR (rs4682522 allele C vs A (ref), Source cohort): 0.59
- CARE OR (rs4830819 allele G vs A (ref), Source cohort): 0.57
- CARE OR (rs4869033 allele G vs A (ref), Source cohort): 0.31
- CARE OR (rs4924215 allele A vs G (ref), Source cohort): 1.77
- CARE OR (rs4986146 allele A vs G (ref), Source cohort): 0.62
- CARE OR (rs4993917 allele A vs C (ref), Source cohort): 0.57
- CARE OR (rs5017584 allele A vs G (ref), Source cohort): 1.61
- CARE OR (rs6075209 allele A vs G (ref), Source cohort): 0.63
- CARE OR (rs6080603 allele A vs C (ref), Source cohort): 0.59
- CARE OR (rs6491586 allele G vs A (ref), Source cohort): 1.59
- CARE OR (rs6505669 allele G vs A (ref), Source cohort): 1.70
- CARE OR (rs6911817, allele A1 A (non-ref), A2 G (ref), source cohort, endpoint/model not given): 2.15
- CARE OR (rs7094941, allele A1 G (non-ref), A2 A (ref), source cohort, endpoint/model not given): 0.78
- CARE OR (rs7179134 allele A vs G (ref), Source cohort): 3.54
- CARE OR (rs7193741 allele A vs C (ref), Source cohort): 2.16
- CARE OR (rs7327364 allele A vs G (ref), Source cohort): 0.69
- CARE OR (rs7497613, allele A1 A (non-ref), A2 G (ref), source cohort, endpoint/model not given): 0.65
- CARE OR (rs7616936, allele A1 C (non-ref), A2 A (ref), source cohort, endpoint/model not given): 1.47
- CARE OR (rs7705993 allele G vs A (ref), Source cohort): 1.50
- CARE OR (rs7767024, allele A1 A (non-ref), A2 G (ref), source cohort, endpoint/model not given): 1.32
- CARE OR (rs7910196, allele A1 G (non-ref), A2 A (ref), source cohort, endpoint/model not given): 1.36
- CARE OR (rs8051893 allele A vs G (ref), Source cohort): 0.69
- CARE OR (rs8109631 allele A vs G (ref), Source cohort): 1.53
- CARE OR (rs9375683 allele G vs A (ref), Source cohort): 1.63
- CARE OR (rs9436636 allele A vs G (ref), Source cohort): 1.34
- CARE OR (rs9446187 allele A vs G (ref), Source cohort): 1.92
- CARE OR (rs9658127, allele A1 A (non-ref), A2 G (ref), source cohort, endpoint/model not given): 2.03
- CARE OR (rs10088505 allele A vs G (ref), Source Caseonly): 1.52
- CARE OR (rs10088524, allele A1 G (non-ref), A2 A (ref), source cohort, endpoint/model not given): 1.46
- CARE OR (rs10103297, allele A1 A (non-ref), A2 G (ref), source cohort, endpoint/model not given): 1.84
- CARE OR (rs10120126 allele G vs A (ref), Source CaseOnly): 0.53
- CARE OR (rs10189905 allele C vs A (ref), Source cohort): 0.50
- CARE OR (rs10500736 allele G vs A (ref), Source cohort): 0.61
- CARE OR (rs10517923 allele A vs G (ref), Source cohort): 1.62
- CARE OR (rs10814422 allele G vs A (ref), Source cohort): 0.64
- CARE OR (rs10849442 allele A vs G (ref), Source Caseonly): 0.56
- CARE OR (rs10875941, allele A1 G (non-ref), A2 A (ref), source cohort, endpoint/model not given): 0.73
- CARE OR (rs10973013 allele A vs G (ref), Source cohort): 0.59
- CARE OR (rs11076320 allele C vs A (ref), Source cohort): 0.64
- CARE OR (rs11082492 allele A vs C (ref), Source cohort): 1.46
- CARE OR (rs11925875 allele A vs G (ref), Source cohort): 0.72
- CARE OR (rs12556591 allele G vs A (ref), Source cohort): 0.57
- CARE OR (rs12657484, allele A1 G (non-ref), A2 A (ref), source cohort, endpoint/model not given): 1.36
- CARE OR (rs13279522 allele G vs A (ref), Source cohort): 0.62
- CARE OR (rs13314266 allele G vs A (ref), Source cohort): 0.60
- CARE OR (rs13318232 allele G vs A (ref), Source cohort): 0.60
- CARE OR (rs16861467, allele A1 G (non-ref), A2 A (ref), source cohort, endpoint/model not given): 0.60
- CARE OR (rs17076974 allele A vs G (ref), Source cohort): 1.46
- CARE OR (rs17546598 allele A vs G (ref), Source cohort): 1.57
- CARE OR (rs17706237 allele G vs A (ref), Source CaseOnly): 1.80
- CARE OR (rs17716275, allele A1 A (non-ref), A2 G (ref), source cohort, endpoint/model not given): 1.91
- CARE OR (rs72746987 allele A vs G (ref), Source cohort): 0.43

Reference: patent publication US10563263B2, “Genetic polymorphisms associated with statin response and cardiovascular diseases, methods of detection and uses thereof” (CELERA CORPORATION, priority 2010, dated 2020)
